Experimental data reported in patent US20240270715A1, “INHIBITORS OF TRANSGLUTAMINASES” (ZEDIRA GMBH, priority 2021, published 2024).
pIC50: −log10 of the molar value.

Columns and labels:
[1] = Caco-2 permeability assay (CacoReady kit); assay type: in vitro ADME; details: human
Protocol: Permeability coefficients (Papp values) were obtained from Caco-2 barrier studies predicting oral/intestinal bioavailability of the tested compounds. The assays were performed by using CacoReady™ ready-to-use kits from ReadyCell according to the manufacturers protocol.

[2] = Log D by shake flask method (octanol / PBS pH 7.4, HPLC); assay type: physicochemical; details: octanol / PBS pH 7.4, shake flask; read-out: logD
Protocol: In order to classify the inventive compounds according to their lipophilicity, Log D values (distribution coefficient) were determined by means of the well-established shake flask method, measuring the partition of a compound between an octanol and phosphate-buffered saline (PBS, pH 7.4) by HPLC.
Compounds with a moderate lipophilicity (Log D values from 0 to 3) are usually advantaged for oral absorption, being in balance between solubility and permeability. However, sophisticated formulation of a compound might improve oral bioavailability for highly lipophilic compounds.

[3] = biological target: T1, recombinant human transglutaminase 2 (Homo sapiens, UniProt P21980); assay: Transglutaminase assay: incorporation of dansylcadaverine into dimethylcasein (DCC-assay); assay type: biochemical; details: recombinant human TG2 10 nM, dansylcadaverine/dimethylcasein; read-out: IC50 TG2
T1 sequence (P21980 1-687): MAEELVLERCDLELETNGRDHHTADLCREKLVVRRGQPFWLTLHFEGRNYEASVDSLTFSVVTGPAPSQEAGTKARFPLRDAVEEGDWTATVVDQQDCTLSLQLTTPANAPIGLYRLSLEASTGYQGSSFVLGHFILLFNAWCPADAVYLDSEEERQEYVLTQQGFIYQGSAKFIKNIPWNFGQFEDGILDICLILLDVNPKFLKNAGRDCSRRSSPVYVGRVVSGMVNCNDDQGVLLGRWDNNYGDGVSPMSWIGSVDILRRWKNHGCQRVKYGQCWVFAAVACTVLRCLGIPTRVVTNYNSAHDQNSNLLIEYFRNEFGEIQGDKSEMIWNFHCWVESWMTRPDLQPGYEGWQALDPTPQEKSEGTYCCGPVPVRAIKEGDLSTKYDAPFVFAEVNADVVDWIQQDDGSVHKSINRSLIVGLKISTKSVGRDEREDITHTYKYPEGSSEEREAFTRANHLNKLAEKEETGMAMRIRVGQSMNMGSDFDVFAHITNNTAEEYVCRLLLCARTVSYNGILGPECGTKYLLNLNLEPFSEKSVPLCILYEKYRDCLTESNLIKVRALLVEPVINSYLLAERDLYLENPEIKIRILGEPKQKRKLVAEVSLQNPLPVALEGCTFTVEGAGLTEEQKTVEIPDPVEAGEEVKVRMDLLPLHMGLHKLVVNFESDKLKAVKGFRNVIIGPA
Protocol: To illustrate the advantage of branched alkyl moieties over aromatic moieties, we refer to reference compounds Ref. 2 (ZED1227, U.S. Pat. No. 9,434,763 B2) and Ref. 3 (A8, ZED1047). Inhibition data were determined using the classical fluorescent transamidation assay (dansylcadaverine incorporation into methylated casein, DCC-assay) as described [Büchold, C.; Hils, M.; Gerlach, U.; Weber, J.; Pelzer, C.; Heil, A.; Aeschlimann, D.; Pasternack, R. Features of ZED1227: The First-In-Class Tissue Transglutaminase Inhibitor Undergoing Clinical Evaluation for the Treatment of Celiac Disease. Cells 2022, 11, 1667. https://doi.org/10.3390/cells11101667]. Casein is one of the best known high molecular weight (24 kDa) protein substrates for transglutaminases. Please note, the IC50 value of Ref. 3 (A8) published in U.S. Pat. No. 9,434,763 B2 cannot be compared to the present data, relying on a fluorogenic isopeptidase assay.
To this extent, inhibition data were determined using the classical fluorescent transamidation assay (dansylcadaverine incorporation into methylated casein, DCC-assay) as described in Büchold et al. [Büchold, C.; Hils, M.; Gerlach, U.; Weber, J.; Pelzer, C.; Heil, A.; Aeschlimann, D.; Pasternack, R. Features of ZED1227: The First-In-Class Tissue Transglutaminase Inhibitor Undergoing Clinical Evaluation for the Treatment of Celiac Disease. Cells 2022, 11, 1667. https://doi.org/10.3390/cells11101667]. Casein is one of the best known high molecular weight (24 kDa) protein substrates for transglutaminases. Inhibition data of the inventive compounds was compared with inhibition of compounds disclosed in U.S. Pat. No. 9,434,763 B2, particularly, compound A8, which is denoted herein as Reference 3. It is noteworthy that the IC50 values of compounds A8 published in U.S. Pat. No. 9,434,763 B2 and E16 from U.S. Pat. No. 11,072,634 B2 cannot be compared to the present data, relying on a fluorogenic isopeptidase assay.
For the determination of potency of inhibitors against tissue transglutaminase, the incorporation of dansylcadaverine into dimethylcasein (Zedira product T036, Lorand et al., Anal Biochem, 1971, 44:221-31) was measured using recombinant human transglutaminase 2 (Zedira Product T022).
The tissue transglutaminase is diluted in buffer (50 mM Tris-HCl, 7.5 mM CaCl2, 150 mM NaCl, pH=7.4). The final concentration of TG2 in the assay is 10 nM.
A 10 mM inhibitor stock solution is prepared in DMSO, and from this a serial 1:2-fold dilution series is prepared also in DMSO. Each of the initial dilutions is subsequently diluted 1:50-fold with buffer (50 mM Tris-HCl, 7.5 mM CaCl2, 150 mM NaCl, pH=7.4) to yield the final working dilutions containing 2% (v/v) DMSO. 15 μl of inhibitor working dilution are added per well of a 96 well microtiter plate. As control, 15 μl of a 2% (v/v) DMSO solution prepared using the buffer mentioned above are added per well.
Immediately before starting the assay, 600 μl transglutaminase working solution are added to 11.4 ml assay buffer (50 mM Tris-HCl, 10 mM CaCl2, 10 mM glutathione, 2.5% glycerol, 16.7 μM dansylcadaverine, 4 μM N,N-dimethylcasein, 200 mM NaCl, pH=8.0). 285 μl of this reaction mix are added per well containing the inhibitor.
Increase in fluorescence is measured using λex=330 nm and λemG=500 nm at […] for 30 min. A slope of the increase in fluorescence between 20 and 30 min is calculated for determination of the IC50 value (inhibitor concentration at which 50% of the initial activity is blocked).
Analysis of enzymatic activity is performed by calculation of the slope of an increase in fluorescence intensity. IC50 values are calculated by plotting the enzymatic activity (as percentage from control containing 2% DMSO instead of inhibitor) against the inhibitor concentration. IC50 is defined as the inhibitor concentration blocking 50% of initial enzyme activity.

Compound: CCNC(=O)C(=O)CC[C@H](NC(=O)c1cncn1C)C(=O)Nc1cccn(CC(=O)NC[C@@H]2CC[C@H]3C[C@@H]2C3(C)C)c1=O [Compound I-13, (S)-N1-(1-(2-(((1S,2R,5S)-6,6-dimethylbicyclo[3.1.1]heptan-2-yl)methylamino)-2-oxoethyl)-2-oxo-1,2-dihydropyridin-3-yl)-N6-ethyl-2-(1-methyl-1H-imidazole-5-carboxamido)-5-oxohexanediamide]
- Papp [1]: < 1 ×10⁻⁶ cm/s
- logD [2]: 1 to 3
- pIC50 [3]: 5.46 to 6.22

Compound: CCNC(=O)C(=O)CC[C@H](NC(=O)c1cncn1C)C(=O)Nc1cccn(CC(=O)NC[C@@H]2CC[C@@H]3C[C@H]2C3(C)C)c1=O [Compound I-14, (S)-N1-(1-(2-(((1R,2R,5R)-6,6-dimethylbicyclo[3.1.1]heptan-2-yl)methylamino)-2-oxoethyl)-2-oxo-1,2-dihydropyridin-3-yl)-N6-ethyl-2-(1-methyl-1H-imidazole-5-carboxamido)-5-oxohexanediamide]
- Papp [1]: < 1 ×10⁻⁶ cm/s
- logD [2]: 1 to 3
- pIC50 [3]: 6.22 to 6.82

Compound: CCNC(=O)C(=O)CC[C@H](NC(=O)c1cn(C)cn1)C(=O)Nc1cccn(CC(=O)NC23CC4CC(CC(CC)(C4)C2)C3)c1=O [Compound I-15, (S)-N1-ethyl-N6-(1-(2-(3-ethyladamantane-1-amino)-2-oxoethyl)-2-oxo-1,2-dihydropyridin-3-yl)-5-(1-methyl-1H-imidazole-4-carboxamido)-2-oxohexanediamide]
- Papp [1]: < 1 ×10⁻⁶ cm/s
- logD [2]: 1 to 3
- pIC50 [3]: 5.46 to 6.22

Compound: CCNC(=O)C(=O)CC[C@H](NC(=O)c1nccn1C)C(=O)Nc1cccn(CC(=O)NC23CC4CC(CC(CC)(C4)C2)C3)c1=O [Compound I-16, (S)-N1-ethyl-N6-(1-(2-(3-ethyladamantane-1-amino)-2-oxoethyl)-2-oxo-1,2-dihydropyridin-3-yl)-5-(1-methyl-1H-imidazole-2-carboxamido)-2-oxohexanediamide]
- Papp [1]: < 1 ×10⁻⁶ cm/s
- logD [2]: 1 to 3
- pIC50 [3]: 5.46 to 6.22

Compound: CCNC(=O)C(=O)CC[C@H](NC(=O)c1c(C)ncn1C)C(=O)Nc1cccn(CC(=O)NC23CC4CC(CC(CC)(C4)C2)C3)c1=O [Compound I-17, (S)-2-(1,4-dimethyl-1H-imidazole-5-carboxamido)-N6-ethyl-N1-(1-(2-(3-ethyladamantane-1-amino)-2-oxoethyl)-2-oxo-1,2-dihydropyridin-3-yl)-5-oxohexanediamide]
- Papp [1]: < 1 ×10⁻⁶ cm/s
- logD [2]: 1 to 3
- pIC50 [3]: 5.46 to 6.22

Compound: CCNC(=O)C(=O)CC[C@H](NC(=O)c1cn(CC(C)C)cn1)C(=O)Nc1cccn(CC(=O)NC23CC4CC(CC(CC)(C4)C2)C3)c1=O [Compound I-18, (S)-N1-ethyl-5-(1-isobutyl-1H-imidazole-4-carboxamido)-N6-(1-(2-(3-ethyladamantane-1-amino)-2-oxoethyl)-2-oxo-1,2-dihydropyridin-3-yl)-2-oxohexanediamide]
- Papp [1]: < 1 ×10⁻⁶ cm/s
- logD [2]: 3 to 5
- pIC50 [3]: 5.46 to 6.22

Compound: CCNC(=O)C(=O)CC[C@H](NC(=O)c1cn(C2CCCC2)cn1)C(=O)Nc1cccn(CC(=O)NC23CC4CC(CC(CC)(C4)C2)C3)c1=O [Compound I-19, (S)-2-(1-cyclopentyl-1H-imidazole-4-carboxamido)-N6-ethyl-N1-(1-(2-(3-ethyladamantane-1-amino)-2-oxoethyl)-2-oxo-1,2-dihydropyridin-3-yl)-5-oxohexanediamide]
- Papp [1]: < 1 ×10⁻⁶ cm/s
- logD [2]: 3 to 5
- pIC50 [3]: 5.46 to 6.22

Compound: CCNC(=O)C(=O)CC[C@H](NC(=O)c1cn(C2CCC2)cn1)C(=O)Nc1cccn(CC(=O)NC23CC4CC(CC(CC)(C4)C2)C3)c1=O [Compound I-20, (S)-2-(1-cyclobutyl-1H-imidazole-4-carboxamido)-N6-ethyl-N1-(1-(2-(3-ethyladamantane-1-amino)-2-oxoethyl)-2-oxo-1,2-dihydropyridin-3-yl)-5-oxohexanediamide]
- Papp [1]: < 1 ×10⁻⁶ cm/s
- logD [2]: 1 to 3
- pIC50 [3]: 5.46 to 6.22

Compound: CCNC(=O)C(=O)CC[C@H](NC(=O)c1c(C)ncn1C)C(=O)Nc1cccn(CC(=O)NC23CC4CC(C)(CC(C)(C4)C2)C3)c1=O [Compound I-21, (S)-2-(1,4-dimethyl-1H-imidazole-5-carboxamido)-N6-ethyl-N1-(1-(2-(3,5-dimethyladamantane-1-amino)-2-oxoethyl)-2-oxo-1,2-dihydropyridin-3-yl)-5-oxohexanediamide]
- Papp [1]: < 1 ×10⁻⁶ cm/s
- logD [2]: 1 to 3
- pIC50 [3]: 5.46 to 6.22

Compound: CCNC(=O)C(=O)CC[C@H](NC(=O)c1cn(C)cn1)C(=O)Nc1cccn(CC(=O)NC23CC4CC(C)(CC(C)(C4)C2)C3)c1=O [Compound I-22, (S)-N1-ethyl-N6-(1-(2-(3,5-dimethyladamantane-1-amino)-2-oxoethyl)-2-oxo-1,2-dihydropyridin-3-yl)-5-(1-methyl-1H-imidazole-4-carboxamido)-2-oxohexanediamide]
- Papp [1]: < 1 ×10⁻⁶ cm/s
- logD [2]: 1 to 3
- pIC50 [3]: 5.46 to 6.22

Compound: CCNC(=O)C(=O)CC[C@H](NC(=O)c1nccn1C)C(=O)Nc1cccn(CC(=O)NC23CC4CC(C)(CC(C)(C4)C2)C3)c1=O [Compound I-23, (S)-N1-ethyl-N6-(1-(2-(3,5-dimethyladamantane-1-amino)-2-oxoethyl)-2-oxo-1,2-dihydropyridin-3-yl)-5-(1-methyl-1H-imidazole-2-carboxamido)-2-oxohexanediamide]
- Papp [1]: < 1 ×10⁻⁶ cm/s
- logD [2]: 1 to 3
- pIC50 [3]: 5.46 to 6.22

Compound: CCNC(=O)C(=O)CC[C@H](NC(=O)c1cnc(C)n1C)C(=O)Nc1cccn(CC(=O)NC23CC4CC(C)(CC(C)(C4)C2)C3)c1=O [Compound I-24, (S)-2-(1,2-dimethyl-1H-imidazole-5-carboxamido)-N6-ethyl-N1-(1-(2-(3,5-dimethyladamantane-1-amino)-2-oxoethyl)-2-oxo-1,2-dihydropyridin-3-yl)-5-oxohexanediamide]
- Papp [1]: < 1 ×10⁻⁶ cm/s
- logD [2]: 1 to 3
- pIC50 [3]: 6.22 to 6.82
